This assay relates to tetrabenazine-induced ptosis. The assay is described as follows: Test for influence on tetrabenazine-induced ptosis in mice. Format: in vivo, mice (male, SPF-71, KF:NMRI). As to conditions: Mus musculus, po, 0.5 h, p.o., tetrabenazine 40 mg/kg i.p. 30 minutes after test substance, ptosis scored 30 minutes later, 50% of control ptosis, 95% confidence limit in parentheses. Here is the method:
Test for influence on tetrabenazine-induced ptosis
Male mice (SPF-71, KF:NMRI) weighing 18-22 g were allotted at random to treatment groups of 6 animals. The test substances were suspended in 1% strength methylhydroxyethylcellulose (MH)/water and administered orally at 10 ml/kg of body weight. A control group was given the solvent (1% strength MH), and the standard group was given 10 mg/kg p.o. of nomifensine (in 1% strength MH). The tetrabenazine solution used was prepared from methanesulfonate (.congruent.76.8% of base), and an amount corresponding to 40 mg/kg of tetrabenazine base was administered intraperitoneally 30 minutes after the test substances. The ptosis was assessed according to the following scale 30 minutes after administration of tetrabenazine: […]
The ptosis scores were cumulated and the result of the groups related to the maximum score achievable (6×.varies.=100%). By means of linear regression, the ED50 (mg/kg) was determined as the dose at which the degree of ptosis is 50% of the value determined in the control group.

In general, ED50 refers to the dose at which the effect has come halfway, by size or by number of responders.

Consider `C=CCC1(C(O)C(c2cccc(Cl)c2)n2ccnc2)CCCCC1` (centres unmarked) [Example 1, 1-(1-Allyl-1-cyclohexyl)-2-(3-chlorophenyl)-2-(1-imidazolyl)-ethanol], for which the ED50 was 3.9 mg/kg.
For the molecule `C=CCC(C)(C)C(O)C(c1cccc(Cl)c1)n1ccnc1` (centres unmarked) [Example 2, 1-(3Chlorophenyl)-3,3-dimethyl-1-(1-imidazolyl)-5-hexen-2-ol], the ED50 amounted to 2 mg/kg.
As for `C=CCC(C)(C)C(O)C(c1ccc(-c2ccccc2)cc1)n1ccnc1` (centres unmarked) [Example 13], the ED50 was determined as 1.3 mg/kg.
Then `CCCC(C)(C)C(O)C(c1ccc(-c2ccccc2)cc1)n1ccnc1` (centres unmarked) [Example 26, 1-(4-Diphenyl)-3,3-dimethyl-1-(1-imidazolyl)-2-hexanol], with 1.2 mg/kg; and `CN1Cc2c(N)cccc2C(c2ccccc2)C1` (centres unmarked) [nomifensine, reference compound], with 1.2 mg/kg.

Values taken from patent publication US4999352A, “1-(1-aryl-2-hydroxyethyl)-imidazoles and salts thereof, medicaments containing these compounds, and the use thereof” (Hoechst Aktiengesellschaft, priority 1987, dated 1991).
